Test results: patent US20100286029A1, “USE OF A PEPTIDE AS A THERAPEUTIC AGENT” (priority 2007, published 2010)
No end group written: not given here.

How the values were obtained:
[1] = test system: hepatitis B virus (HBV) ayw strain; experiment: HBV experimental assay system, secreted HBV DNA by TaqMan PCR in HepG2-2.2.15; type: cell-based; settings: 10 micrograms per ml; HepG2-2.2.15 cells, six days
Method: HepG2-2.2.15 is a stable cell line containing the hepatitis B virus (HBV) ayw strain genome (ATCC Cat. No. CRL-11997). Antiviral compounds blocking any late step of viral replication such as transcription, translation, pregenome encapsidation, reverse transcription, particle assembly and release can be identified and characterized using this cell line.
HepG2-2.2.15 cells were plated in 96-well microtiter plates. After 16-24 hours the confluent monolayer of HepG2-2.2.15 cells was washed and the medium was replaced with complete medium containing test peptides-10 micrograms per ml—in duplicate. […] Three days later the culture medium was replaced with fresh medium containing the peptides. Six days following the initial administration of the peptides, the cell culture supernatants was collected, treated with pronase and DNAse and then used in a real-time quantitative TaqMan PCR assay. The PCR-amplified HBV DNA was detected in real-time by monitoring increases in fluorescence signals that result from the exonucleolytic degradation of a quenched fluorescence probe molecule that hybridizes to the mplified HBV DNA. For each PCR amplification, a standard curve was simultaneously generated using dilutions of purified HBV DNA.
Antiviral activity was calculated from the reduction in HBV DNA levels (% virus control). […]

[2] = test system: Human Peripheral Blood Mononuclear Cells (PBMC); experiment: B cell proliferation assay (SAC plus Interleukin-2, 3H-thymidine); type: cell-based; settings: 10 micrograms per ml
Method: Human Peripheral Blood Mononuclear Cells (PBMC) were obtained from normal human donors. The B cell proliferation was induced by stimulation of the cells with the B cell mitogen Staphylococcus aureus Cowans I (SAC) plus Interleukin-2, either in the absence (positive proliferation control), or in the presence of test peptides—10 micrograms per ml—to examine their effects on the B cell response. 10^5/well PBMC were plated in 96-well microtiter plates and assayed in duplicate with the peptides. […] At the end of incubation time, the plates were harvested and the cells counted by liquid scintillation for the incorporation of ^3H-thymidine as a measure of B cell proliferation.

Human A549 cells = experiment: Apoptosis prevention assay (C2 ceramide, Annexin-5); type: cell-based; settings: 10 micrograms per ml, 30 min pretreatment
Method: Human A549 cells (carcinomic human alveolar basal epithelial cells) were utilized in the experiments employing the Annexin-5 apoptosis assay. […] A549 cells were pretreated for 30 min with test peptides—10 micrograms per ml—followed by the exposure to C2 ceramide.

spleen cells = experiment: Th1/Th2 cytokine profiling assay (Ovalbumin-restimulated spleen cells, CBA kit); type: cell-based, Balb/c mice; settings: 10 micrograms per ml; Ovalbumin restimulation, 72 hours
human macrophages = experiment: TNF alpha production assay (LPS-stimulated macrophages, ELISA); type: cell-based; settings: 10 micrograms per ml, 30 min preincubation; LPS 200 ng/ml, overnight
Method: Human Peripheral Blood Mononuclear Cells (PBMC) were obtained from normal human donors. The macrophages were prepared by adherence of PBMC to the plastic wells of the plates. […] Not stimulated macrophages served as negative background control. After overnight incubation, supernatants from the control and LPS-stimulated cultures were harvested and assayed for TNF alpha production employing a TNF alpha specific ELISA.

[3] = test system: Human Peripheral Blood Mononuclear Cells (PBMC); experiment: T cell proliferation assay (PHA, 3H-thymidine); settings: 10 micrograms per ml, 3H-thymidine incorporation
Method: Human Peripheral Blood Mononuclear Cells (PBMC) were obtained from normal human donors. The T cell proliferation was induced by stimulation of the cells with the T cell mitogen phytohemagglutinin (PHA), either in the absence (positive proliferation control), or in the presence of test peptides—10 micrograms per ml—to examine their effects on the T cell proliferating response. 10^5/well PBMC were plated in 96-well microtiter plates and assayed in duplicate with the peptides. […] At the end of incubation time, the plates were harvested and the cells counted by liquid scintillation for the incorporation of ^3H-thymidine as a measure of T cell proliferation.

Substance: Tyr-Pro-Phe-Val-Glu-Pro-Ile-OH (YPFVEPI-OH) [Peptide 1]
- inhibition of HBV replication as compared to the virus control infection [1]: 23.8%
- induction of the proliferation of specifically stimulated human B-cells [2]: did not induce
- prevention (reduction) of ceramide-induced apoptosis on human lung cells (Human A549 cells): 37.3%
- IFNγ spleen cells; TH1 response (% of control) (spleen cells): 218.6 % of control
- IL-2 spleen cells (% of control) (spleen cells): 96.9 % of control
- IL-4 spleen cells; TH2 response (% of control) (spleen cells): 142.1 % of control
- IL-5 spleen cells; TH2 response (% of control) (spleen cells): 81.6 % of control
- TNF-a spleen cells; TH1 response (% of control) (spleen cells): 143.7 % of control
- induction of the LPS-induced TNF-alpha production in human macrophages (human macrophages): 18.4%
- % of PHA induced Control (T cell proliferation) [3]: 98.8%
